Patent US4879313A, “Novel platelet-aggregation inhibitors” (Mosanto Company, priority 1988, dated 1989)

Legend:
[1] = system: ADP-induced platelet aggregation in human PRP; assay: In-vitro human platelet aggregation in PRP (ADP-induced); type: cell-based; settings: for HUMAN PRP % INHIBITION AT 10^-4 M: compound at 10^-4 M, human platelet-rich plasma; for IC50: human PRP, linear regression of the dose response curve
Method: In one assay, platelet aggregation is examined in platelet-rich plasma which also is rich in fibrinogen and other plasma proteins. The % inhibition is determined for the test compound by comparing the extent of platelet aggregation in the presence and absence of the test compound.
Healthy male or female donors who have not taken any antiplatelet drugs for at least 2 weeks were fasted for 8 hours prior to drawing blood; then 30 ml whole blood was collected using a butterfly needle and 30 cc plastic syringe with 3 ml of 0.129 M buffered sodium citrate (3.8%). The syringe was rotated carefully as blood was drawn to mix the citrate. Platelet-richplasma (PRP) was prepared by centrifugation at 100×g for 10 minutes at room temperature, allowing the centrifuge to coast to a stop without braking. The PRP was removed from the blood with a plastic pipette and placed in a plastic capped, 50 ml Corning conical sterile centrifuge tube which was held at room temperature. Platelet poor plasma (PPP) was prepared by centrifuging the remaining blood at 2000×g for 15 minutes at room temperature allowing the centrifuge to coast to a stop without braking. The PRP was adjusted with PPP to a count of 2-3×10^8 platelets per ml. 400 μl of the PRP preparation and 50 μl of the compound to be tested or saline were preincubated for 1 minute at 37° C. in a Payton aggregometer (Payton Scientific, Inc., Buffalo, N.Y.). 50 μl of adenosine 5'-diphosphate (ADP) (50 μM) was added to the cuvettes and the aggregation was monitored for 1 minute. All compounds are tested in duplicate. Results are calculated as follows: Percent of control=[(maximal OD minus initial OD of compound) divided by (maximal OD minus initial OD of control saline)]×100. The % inhibition=100-(percent of control).
The compounds tested and their activity results in % inhibition at 10^-4 M and median inhibitory concentration (IC50) were as recorded in Table 1.

[2] = system: collagen induced rat thrombocytopenia (platelet aggregation); assay: In vivo rat thrombocytopenia (collagen induced)
Method: In another test, the effect of the peptide mimetic compound on collagen induced thrombocytopenia (platelet aggregation) is measured in vivo in the rat. Again, the % inhibition is determined for the test compound and compared against a saine or ethanol vehicle in the absence of the test compound.
Male rats [Charles River, CRL:CD(SD), 400-450 g] were used. The rats were anesthetized with Na pentabarbital (65 mg/kg, Vet Labs, Limited, lnc., Lenexa, Kan.). Two incisions were made to expose both jugular veins. Using an infusion pump (Harvard Apparatus, South Natick, Mass.) and a 5 cc syringe with a 19 g. butterfly, the test compound or vehicle was infused into the left jugular vein at a rate of 0.39 ml/min for 3 min. After 2 min of compound/vehicle infusion, collagen (60 μg/kg) (Helena Laboratories,Beaumont, Tex.) was injected with a one ml syringe into the right jugular vein. The body cavity was opened and the vena cava was exposed for blood sampling. One min after the collagen injection, compound infusion was stopped and blood was sampled from the vena cava (within 30 sec) with a 3 cc syringe containing […] of 4.5% EDTA/Tris (0.1 M) (pH 7.35) plus 150 μM indomethacin. Platelet rich plasma (PRP) was prepared by centrifuging the blood at 126×g for 10 min. Five μ1 of PRP was counted in 20 ml of Isoton®III in a Coulter Counter.
Percent inhibition of collagen induced aggregation was calculated by comparison of the platelet counts in animals that were treated with test compound and collagen (a) with platelet counts for animals receiving no collagen (non-aggregated control) and (b) with platelet counts for animals receiving vehicle and collagen (aggregated control).
The % inhibition of platelet aggregation in vivo and the median effective dose (ED50) of the test compounds are set forth in the following Table II.

SMILES	HUMAN PRP % INHIBITION AT 10^-4 M [1]	% INHIBITION AT 1 mg/kg ([2]; 1 mg/kg, infusion into jugular vein, collagen 60 μg/kg, rat)	effective dose relative to that required for equivalent inhibitory activity by Arg-Gly-Asp-(O-methyl-Tyr)-NH2 ([2]; in vivo thrombocytopenia assay, fraction of reference dose)	ED50 ([2]; infusion into jugular vein, collagen induced thrombocytopenia, rat)	ED50 (orally active in rats) ([2]; oral, rats)	IC50 [1]
COc1ccc(CCNC(=O)[C@H](CC(=O)O)NC(=O)CCCCCCNC(=N)N)cc1 [7-guanidino-heptanoyl-Asp--2-(4-methoxy-phenyl)ethyl amide]	43%	–	–	–	–	–
COc1ccc(CCNC(=O)C(CC(=O)O)NC(=O)CCCCCCCNC(=N)N)cc1 (centres unmarked) [8-guanidino-octanoyl-Asp-2-(4-methoxyphenyl)ethyl amide]	100%	67.05%	about one eighth	0.07 mg/kg	7.8 mg/kg	–
COc1ccc(CCNC(=O)[C@H](CC(=O)O)NC(=O)CCCCCCCNC(=N)N)cc1OC [8-guanidino-octanoyl-Asp--2-(3,4-dimethoxy-phenyl)ethyl amide]	100%	–	–	–	–	12 µM
COc1ccc(CNC(=O)[C@H](CC(=O)O)NC(=O)CCCCCCCNC(=N)N)cc1 [8-guanidino-octanoyl-Asp--4-methoxybenzyl amide]	100%	–	–	–	–	33 µM
N=C(N)NCCCCCCCC(=O)N[C@@H](CC(=O)O)C(=O)N[C@@H](Cc1ccc(-c2ccccc2)cc1)C(N)=O [8-guanidino-octanoyl-Asp--(4-phenyl)-phenylalanine amide]	100%	–	–	–	–	17 µM
COc1ccc(CCNC(=O)[C@H](CC(=O)O)NC(=O)CCCCCCCCNC(=N)N)cc1 [9-guanidino-nonanoyl-Asp-2-(4-methoxyphenyl)ethyl amide]	100%	–	–	–	–	27 µM
COc1ccc(CCNC(=O)[C@H](CC(=O)O)NC(=O)CCCCCCCCCNC(=N)N)cc1 [10-guanidino-decanoyl-Asp--2-(4-methoxy-phenyl)ethyl amide]	65%	–	–	–	–	70 µM
COc1ccc(CCNC(=O)[C@H](CC(=O)O)NC(=O)CNCCCCNC(=N)N)cc1 [N--(4-guanidinobutyl)-Gly--Asp--2-(4-methoxy-phenyl)ethyl amide]	0%	–	–	–	–	–
